For series [1], the system named is primary mouse retinal microvascular endothelial cells (MRMEC). In words: Cell viability assay with Calcein Deep Red AM ester. The settings on record: 20 h, 70% ethanol in water; p<0.01. In kind it is cell-based. On the procedure: Cell culture: Bone marrow-derived macrophages (BMDM), isolated from adult C57BL/6 mouse bone marrow, were purchased from ScienCell Research Laboratories (Carlsbad, CA) and cultured in ScienCell's phenol red-free Macrophage Medium (MaM) supplemented with 5% fetal bovine serum (FBS), Macrophage Growth Supplement (MaGS), and 1% Penicillin-Streptomycin (Pen, 100 U/mL; Strep, 100 μg/mL). Mouse Primary Retinal Microvascular Endothelial Cells (MRMEC), isolated from C57BL/6 mice, were purchased from Cell Biologics Inc. […] The medium was additionally supplemented with 10% FBS (R&D Systems, Minneapolis, MN). BMDMs and […] were incubated at 37° C., 5% CO2, and 95% relative humidity. Cell viability assay: […] (Passage 4) were seeded on sterile black 96-well plates in complete medium at a density of 1.5×10^4 cells per well. […] This fluorescent compound is redshifted relative to […]=510/540 nm), which is necessary to avoid interference from any InflammaProbe-1-dependent fluorescence during fluorometric measurements. […] Finally, fluorometric measurements were performed at ex/em=620/660 nm using the Cytation 5 microplate reader (BioTek Instruments, Inc., Winooski, VT). Fluorescence intensities were plotted as the percentage of cell viability relative to the control group. The data were expressed as the mean±SD of 6 replicates per group.

For series [2], the target named is T1, NLRP3 inflammasome (Mus musculus, UniProt Q8R4B8).
T1 construct: InflammaProbe-1 could selectively stain macrophages that have been induced to express NLRP3; host or cells: primary C57BL/6 mouse bone marrow-derived macrophages (BMDM)
T1 sequence (Q8R4B8 whole entry): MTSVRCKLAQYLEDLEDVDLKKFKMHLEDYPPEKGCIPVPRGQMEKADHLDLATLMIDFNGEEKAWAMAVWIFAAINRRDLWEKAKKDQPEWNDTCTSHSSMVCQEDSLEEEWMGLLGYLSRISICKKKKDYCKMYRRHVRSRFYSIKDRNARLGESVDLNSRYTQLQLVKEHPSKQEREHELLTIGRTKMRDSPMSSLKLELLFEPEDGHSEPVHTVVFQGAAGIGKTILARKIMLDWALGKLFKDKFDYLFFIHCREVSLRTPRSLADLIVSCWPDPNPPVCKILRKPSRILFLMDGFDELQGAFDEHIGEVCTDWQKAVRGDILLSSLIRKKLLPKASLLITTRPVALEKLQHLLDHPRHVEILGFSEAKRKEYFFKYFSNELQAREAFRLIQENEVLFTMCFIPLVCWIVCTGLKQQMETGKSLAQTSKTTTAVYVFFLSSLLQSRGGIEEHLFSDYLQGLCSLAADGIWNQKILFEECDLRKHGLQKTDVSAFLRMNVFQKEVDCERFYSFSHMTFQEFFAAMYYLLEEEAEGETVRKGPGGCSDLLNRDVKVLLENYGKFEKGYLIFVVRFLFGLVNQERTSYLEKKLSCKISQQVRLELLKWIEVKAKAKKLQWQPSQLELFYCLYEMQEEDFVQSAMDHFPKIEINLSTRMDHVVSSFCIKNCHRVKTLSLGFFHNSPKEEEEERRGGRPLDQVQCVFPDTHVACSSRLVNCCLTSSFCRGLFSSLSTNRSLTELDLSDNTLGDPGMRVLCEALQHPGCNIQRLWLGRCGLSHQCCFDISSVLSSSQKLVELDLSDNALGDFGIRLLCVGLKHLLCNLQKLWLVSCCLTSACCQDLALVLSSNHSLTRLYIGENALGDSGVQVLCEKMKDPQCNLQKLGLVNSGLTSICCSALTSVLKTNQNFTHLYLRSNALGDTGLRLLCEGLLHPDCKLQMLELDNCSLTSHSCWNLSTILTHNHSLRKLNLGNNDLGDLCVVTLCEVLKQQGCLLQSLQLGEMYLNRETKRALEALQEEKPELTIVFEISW
In words: Inhibition assay of IL-1β (ELISA) in LPS-primed and nigericin-stimulated BMDMs. In kind it is cell-based, murine. On the procedure:
(§1) Cell culture: Bone marrow-derived macrophages (BMDM), isolated from adult C57BL/6 mouse bone marrow, were purchased from ScienCell Research Laboratories (Carlsbad, CA) and cultured in ScienCell's phenol red-free Macrophage Medium (MaM) supplemented with 5% fetal bovine serum (FBS), Macrophage Growth Supplement (MaGS), and 1% Penicillin-Streptomycin (Pen, 100 U/mL; Strep, 100 μg/mL). Mouse Primary Retinal Microvascular Endothelial Cells (MRMEC), isolated from C57BL/6 mice, were purchased from Cell Biologics Inc. (Chicago, IL) and cultured in Cell Biologics' phenol red-free Endothelial Cell Medium supplemented with 0.1% VEGF, 0.1% Heparin, 0.1% EGF, 0.1% ECGS, 0.1% Hydrocortisone, 2 mM L-Glutamine, and 1% Antibiotic-Antimycotic. The medium was additionally supplemented with 10% FBS (R&D Systems, Minneapolis, MN). BMDMs and MRMECs were incubated at 37° C., 5% CO2, and 95% relative humidity.
Inhibition assay of IL-1β and TNF-α: BMDMs were seeded in 12-well plates at a density of 5×10^4 cells per well. After an overnight incubation, the cells were primed with 50 ng/mL LPS for 3 h, treated with 1 to 10 µM InflammaProbe-1 or CY-09 for 1 h, and stimulated with 10 μM nigericin for another hour to induce NLRP3 activation, as described in the literature. Cell culture supernatants were assayed for mouse IL-1β and TNF-α by performing enzyme-linked immunosorbent assays (ELISA; Invitrogen, Waltham, MA) in accordance with the manufacturer's instructions. The data were expressed as the mean±SD of 3 replicates per group.
On the technique in general: In an ELISA, binding on a coated surface is turned into a signal by an enzyme label.

The target of series [3] is NLRP3 (Mus musculus, UniProt Q8R4B8). The settings on record: murine model, literature; cited from earlier work.
Chain of NLRP3 (Q8R4B8 whole entry): as above
Series [4] relates to TNF-α. In words: Off-target assay of LPS-induced TNF-α secretion (ELISA) in BMDMs. In kind it is cell-based, murine. The settings on record: 10 μM; in comparison to InflammaProbe-1, p<0.05. On the procedure: as §1
Inhibition assay of IL-1β and TNF-α: BMDMs were seeded in 12-well plates at a density of 5×10^4 cells per well. After an overnight incubation, the cells were primed with 50 ng/mL LPS for 3 h, treated with 1 to 10 µM InflammaProbe-1 or CY-09 for 1 h, and stimulated with 10 μM nigericin for another hour to induce NLRP3 activation, as described in the literature. […] The data were expressed as the mean±SD of 3 replicates per group.

Take `CCO` [70% ethanol, ethanol]: the “viability of MRMECs (positive control)” value in series [1] is given as “significantly decreased”.
For `O=C(O)c1ccc(/C=C2/SC(=S)N(Cc3cccc(C(F)(F)F)c3)C2=O)cc1` [CY-09], the “decrease of IL-1β levels in comparison to the LPS and nigericin control” value in series [2] (1 μM, p<0.05) is around 1.3 fold; in series [2] (5 μM, p<0.01), around 2 fold; in series [2] (10 μM, p<0.01), around 4 fold. The “inhibition of NLRP3-mediated secretion of IL-1β” value in series [2] (LPS-primed and nigericin-stimulated murine BMDM, 1 to 10 μM) was “dose-dependently inhibited”. The “NLRP3-mediated cellular secretion of IL-1β” value in series [3] is “suppressed”. Besides, the “effect on levels of TNF-α” value in series [4] is reported as “significantly decreased”.

The values above are taken from US20250283896A1, “PROBES AND METHODS FOR TARGETED VISUALIZATION OF NLRP3 INFLAMMASOMES” (VANDERBILT UNIVERSITY, priority 2022, published 2025).
